# Several values for one entry are separate records, joined by “and”; a condition that tells them apart may be missing. Equal entries are not always repeated. Numbered stars: 1 amine (or outer) side, 2 acyl side, 3 side chain; on linkers, the order of the positions; unused ones are H or OH. Bridge positions count the residues as written; N and C are the ends. Square brackets hold non-standard residues; d marks the D form. Peptide text beside a SMILES is read from it. I, II: the chains in the order shown. Actinocin(9to1) = Cc1c2oc3c(C)ccc(C(=O)[*:1])c3nc-2c(C(=O)[*:2])c(N)c1=O; NMeV = CN[C@H](C(=O)O)C(C)C; Sar = CNCC(=O)O
# B1: IL-10: cytokine (protein, UniProt P22301 19-178, looked up)
# Interleukin-10: SPGQGTQSENSCTHFPGNLPNMLRDLRDAFSRVKTFFQMKDQLDNLLLKESLLEDFKGYLGCQALSEMIQFYLEEVMPQAENQDPDIKAHVNSLGENLKTLRLRLRRCHRFLPCENKSKAVEQVKNAFNKLQEKGIYKAMSEFDIFINYIEAYMTMKIRN
# Columns and labels:
# TRRE = assay: Effect of protease inhibitors and divalent metal ions on partially-purified TRRE activity; assay type: biochemical, human; settings: for effect on TRRE activity: partially-purified TRRE
# Protocol: C75R cells and COS-1 cells were seeded into 24-well culture plates at a density of 2.5×10^5 cells/ml/well and incubated overnight (for 12 to 16 hours) in 5% CO2 at 37° C. […] (corresponding to A and C mentioned below, respectively). Simultaneously, C75R cells in 24-well plates were also incubated with 300 μl of fresh medium or buffer (corresponding to B mentioned below).
# The precipitate was pelleted by centrifugation at 10,000×g for 30 min and resuspended in PBS in approximately twice the volume of the pellet. This solution was then dialyzed at 4° C. against 10 mM Tris-HCl, 60 mM NaCl, pH 7.0. This sample was loaded on an anion-exchange chromatography, Diethylaminoethyl (DEAE)-Sephadex A-25 column (Pharmacia Biotech) (2.5×10 cm) previously equilibrated with 50 mM Tris-HCl, 60 mM NaCl, pH 8.0.
# Protease inhibitors were purchased from Sigma Chemical (St. Louis, Mo.), including phenylmethylsulfonyl fluoride (PMSF), 4-(2-aminoethyl)-benzenesulfonyl fluoride (AEBSF), 3,4-dichloroisocoumarin (3,4-DCI), N-α-tosyl-L-lysine chloromethyl ketone (TLCK), N-tosyl-L-phenylalanine chloromethyl ketone (TPCK), ethylenediaminetetraacetic acid (EDTA), ethyleneglycol bis (2-aminoethyl ether) tetraacetic acid (EGTA), 1,10-phenanthroline, and phosphoramidon. These inhibitors can be divided into the following classes: (i) serine protease inhibitors (4 mM PMSF, 0.5 mM AEBSF, and 0.1 mM 3,4-DCI); (ii) serine and cysteine protease inhibitors (0.1 mM TLCK and TPCK); (iii) chelating agents (2 mM EDTA, EGTA, and 1,10-phenanthroline); (iv) a metallo-endoprotease inhibitor (0.5 mM phosphoramidon); and (v) divalent heavy metal ions (2 mM CaCl2, MgCl2, MnCl2, ZnCl2, CoCl2, CuCl2, and FeCl2). […] The percent activity remaining (% control) was expressed relative to the control.
# The percent activity remaining (% control) was calculated as above.
# THP-1 cells [1] = assay: Effect of inhibitors co-incubated with PMA on TRRE production; assay type: cell-based, human; settings: inhibitor 0.01 mM with 10^−6 M PMA
# THP-1 cells [2] = assay: as above; assay type: cell-based, human
# Description: Several inhibitors including cycloheximide (Chx) (an inhibitor of protein synthesis), actinomycin D (ActD) (an inhibitor of RNA synthesis), N-ethylmaleimide (NEM) (an inhibitor of membrane internalization and movement), cytochalasin B (CytB) (an inhibitor of microfilament formation), and colchicine (Col) (an inhibitor of microtubule formation) were purchased from Sigma Chemical (St. Louis, Mo.). THP-1 cells at a density of 1×10^6 cells/ml in RPMI-1640/1% FCS with 10^−6 M PMA was co-stimulated along with 10 μg/ml Chx, 1 μg/ml ActD, 1 mM NEM, 0.1 mM CytB, or 0.1 mM Col for 30 min at 37° C. in 5% CO2. Following centrifugation at 400×g for 5 min, the supernatant was discarded and the cells were washed once with serum-free medium. The cells were incubated for an additional 2 hours at the same density (1×10^6 cells/ml) in PMA-free RPMI-1640 with corresponding inhibitors.
# sTNF-R = settings: Seitz et al. (1997); cited from earlier work
# THP-1 cells [3] = assay: Induction of TRRE by cytokines and hormones; assay type: cell-based, human; settings: 2 hours stimulation, insulin 10^−7 M, IL-1β 10 ng/ml, IL-6 100 ng/ml; for induction of TRRE activity: IL-10 100 ng/ml, epinephrine 10^−6 M
# [4] = molecular target: human soluble p75 TNF-R (human) (UniProt P20333); assay: soluble p75 TNF-R-Affigel 10 affinity chromatography of TRRE after reaction with C75R cells; TRRE activity assay of fractions
# Chain of human soluble p75 TNF-R (human) (P20333 23-257): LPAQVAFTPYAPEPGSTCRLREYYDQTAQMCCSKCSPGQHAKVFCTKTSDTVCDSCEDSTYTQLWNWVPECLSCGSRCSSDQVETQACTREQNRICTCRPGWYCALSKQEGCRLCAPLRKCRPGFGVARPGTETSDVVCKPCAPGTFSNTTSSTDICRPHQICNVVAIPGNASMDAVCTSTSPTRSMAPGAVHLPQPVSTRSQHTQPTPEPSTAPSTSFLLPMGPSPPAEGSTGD
# [5] = molecular target: human p55 TNF-R (on THP-1 cells) (human) (UniProt P19438); assay: cell-based or functional assay
# Chain of human p55 TNF-R (on THP-1 cells) (human) (P19438 30-455): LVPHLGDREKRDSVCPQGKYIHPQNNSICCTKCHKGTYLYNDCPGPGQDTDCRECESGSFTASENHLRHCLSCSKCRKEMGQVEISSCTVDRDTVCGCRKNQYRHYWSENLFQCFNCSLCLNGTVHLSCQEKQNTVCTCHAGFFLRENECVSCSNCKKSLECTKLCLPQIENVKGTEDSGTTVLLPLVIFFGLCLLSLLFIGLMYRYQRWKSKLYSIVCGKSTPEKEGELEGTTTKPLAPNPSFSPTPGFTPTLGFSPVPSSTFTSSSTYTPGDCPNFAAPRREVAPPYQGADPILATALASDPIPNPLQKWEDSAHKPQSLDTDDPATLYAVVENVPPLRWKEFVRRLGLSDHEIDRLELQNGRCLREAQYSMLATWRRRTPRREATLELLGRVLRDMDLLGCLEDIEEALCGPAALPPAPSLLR
# [6] = molecular target: human p75 TNF-R (membrane-bound, on C75R transfected COS-1 cells or on THP-1 cells) (human) (UniProt P20333); assay: cell-based or functional assay
# Chain of human p75 TNF-R (membrane-bound, on C75R transfected COS-1 cells or on THP-1 cells) (human) (P20333 23-461 C75R limits assumed): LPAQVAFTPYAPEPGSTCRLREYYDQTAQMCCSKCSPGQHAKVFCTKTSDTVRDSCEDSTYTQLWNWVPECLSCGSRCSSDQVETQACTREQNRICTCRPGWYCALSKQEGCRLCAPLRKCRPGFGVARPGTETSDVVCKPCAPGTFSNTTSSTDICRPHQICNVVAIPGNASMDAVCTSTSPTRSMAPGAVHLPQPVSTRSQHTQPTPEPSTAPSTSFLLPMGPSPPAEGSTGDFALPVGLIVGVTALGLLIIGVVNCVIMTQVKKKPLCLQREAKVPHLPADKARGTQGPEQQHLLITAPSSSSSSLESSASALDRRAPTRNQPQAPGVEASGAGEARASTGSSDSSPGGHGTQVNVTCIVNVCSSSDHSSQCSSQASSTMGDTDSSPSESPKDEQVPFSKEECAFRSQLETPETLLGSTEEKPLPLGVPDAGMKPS
# [7] = molecular target: TNF-R on L929 cells (murine); assay: cell-based or functional assay
# [8] = test system: Lipopolysaccharide-induced shock; settings: Yamamoto et al. (1997); cited from earlier work
# [9] = 2 mM, preincubated 37° C. 30 min (Table 5)
# [10] = inhibitor 0.1 mM with 10^−6 M PMA
# [11] = inhibitor 1 mM with 10^−6 M PMA
# [12] = 0.5 mM, preincubated 37° C. 30 min (Table 5)
# [13] = 0.1 mM, preincubated 37° C. 30 min (Table 5)
molecule,measurement,setting,value
"c1cnc2c(c1)ccc1cccnc12 [1,10-Phenanthroline, 1,10-phenanthroline]",% Control of TRRE activity,TRRE; 2 mM (Table 6),47 ± 9%
same,% Control of TRRE activity,TRRE; [9],41 ± 6%
same,% Control of TRRE activity,"TRRE; 2 mM, preincubated 37° C. 30 min (Table 5), listed as 1,10-phenanthroline",41%
"COc1cc2c(c(OC)c1OC)-c1ccc(OC)c(=O)cc1[C@@H](NC(C)=O)CC2 [Colchicine, colchicine]",% of TRRE production,THP-1 cells [1],95%
same,% of TRRE production,THP-1 cells [2]; [10],111%
same,% of TRRE production,THP-1 cells [2]; [11],125%
gold sodium thiomalate,sTNF-R shedding,sTNF-R,not affected
"C[C@@H]1C[C@@H]([C@H](O)CC2CC(=O)NC(=O)C2)C(=O)[C@@H](C)C1 [Cycloheximide, cycloheximide]",% of TRRE production,THP-1 cells [2]; inhibitor 10 μg/ml with 10^−6 M PMA,97%
same,% of TRRE production,"THP-1 cells [2]; inhibitor 10 μg/ml with 10^−6 M PMA, listed as Chx",104%
"Cc1c2oc3c(C)ccc(C(=O)N[C@@H]4C(=O)N[C@H](C(C)C)C(=O)N5CCC[C@H]5C(=O)N(C)CC(=O)N(C)[C@@H](C(C)C)C(=O)O[C@@H]4C)c3nc-2c(C(=O)N[C@@H]2C(=O)N[C@H](C(C)C)C(=O)N3CCC[C@H]3C(=O)N(C)CC(=O)N(C)[C@@H](C(C)C)C(=O)O[C@@H]2C)c(N)c1=O [Actinomycin D, actinomycin D] (I: T[dV]P[Sar][NMeV] / II: T[dV]P[Sar][NMeV]; ester I:1-I:C, II:1-II:C; linker I:N-II:N via Actinocin(9to1))",% of TRRE production,THP-1 cells [2]; inhibitor 1 μg/ml with 10^−6 M PMA,104%
same,% of TRRE production,"THP-1 cells [2]; inhibitor 1 μg/ml with 10^−6 M PMA, listed as ActD",97%
IL-1β: cytokine,induction of TRRE activity,THP-1 cells [3],no apparent TRRE activity
same,induction of sTNF-R,THP-1 cells [3],induced sTNF-R
"TNF receptor releasing enzyme (TRRE), from PMA-stimulated THP-1 cells",percent of recovered TRRE activity in the elution of the soluble p75 TNF-R affinity column,[4],25%
same,percent of recovered TRRE activity in the flow through of the soluble p75 TNF-R affinity column (not retained),[4],53%
same,percent of recovered TRRE activity in the wash of the soluble p75 TNF-R affinity column (not retained),[4],22%
same,"cell surface expression on THP-1 cells after 5,000 U/ml TRRE (flow cytometry, percent control of MFI)",[5],8 % control
same,"soluble p55 TNF-R released from THP-1 cells (ELISA) after 1,000 U/ml TRRE for 30 min",[5],2380 pg/mL
same,"cell surface expression on THP-1 cells after 5,000 U/ml TRRE (flow cytometry, percent control of MFI)",[6],49 % control
same,"soluble p75 TNF-R released from THP-1 cells (ELISA) after 1,000 U/ml TRRE for 30 min",[6],1660 pg/mL
same,"ratio of surviving L929 cells with 4 ng/ml TNF to cells without TNF, pretreated with 100 U/ml TRRE (control without TRRE: 24%)",[7],30%
same,"ratio of surviving L929 cells with 4 ng/ml TNF to cells without TNF, pretreated with 500 U/ml TRRE (control without TRRE: 24%)",[7],38%
same,"ratio of surviving L929 cells with 4 ng/ml TNF to cells without TNF, pretreated with 2,500 U/ml TRRE (control without TRRE: 24%)",[7],74%
O=C(C(=O)N1CCn2nc(-c3ccc(F)cc3)c(-c3ccncc3)c2N1)c1ccccc1.O=S(=O)(O)O [FR167653],Lipopolysaccharide-induced shock,[8],ameliorated
"CC(C)C[C@H](NP(=O)(O)O[C@@H]1O[C@@H](C)[C@H](O)[C@@H](O)[C@H]1O)C(=O)N[C@@H](Cc1c[nH]c2ccccc12)C(=O)O [Phosphoramidon, phosphoramidon]",% Control of TRRE activity,TRRE; [12],84 ± 13%
"[Cl-].[Cl-].[Zn+2] [Zn^2+, ZnCl2]",% Control of TRRE activity,TRRE; 0.1 mM (Table 6),122±6%
same,% Control of TRRE activity,TRRE; [9],23% and 23 ± 15%
"O=C(O)CN(CCN(CC(=O)O)CC(=O)O)CC(=O)O [EDTA, ethylenediaminetetraacetic acid]",% Control of TRRE activity,TRRE; [9],67% and 67 ± 7%
"O=C(O)CN(CCOCCOCCN(CC(=O)O)CC(=O)O)CC(=O)O [EGTA, ethyleneglycol bis (2-aminoethyl ether) tetraacetic acid]",% Control of TRRE activity,TRRE; [9],73% and 73 ± 4%
"NCCc1ccc(S(=O)(=O)F)cc1 [AEBSF, 4-(2-aminoethyl)-benzenesulfonyl fluoride]",% Control of TRRE activity,TRRE; [12],92 ± 8%
same,effect on TRRE activity,TRRE,no effect
"C=C1[C@@H](C)[C@H]2[C@H](Cc3ccccc3)NC(=O)[C@]23OC(=O)/C=C/[C@H](O)CCC[C@@H](C)C/C=C/[C@H]3[C@@H]1O [Cytochalasin B, cytochalasin B]",% of TRRE production,THP-1 cells [1],103%
same,% of TRRE production,THP-1 cells [2]; [10],91%
"[Cl-].[Cl-].[Co+2] [Co^2+, CoCl2]",% Control of TRRE activity,TRRE; [9],123% and 123 ± 15%
CNC[C@H](O)c1ccc(O)c(O)c1 [epinephrine],induction of TRRE activity,THP-1 cells [3],induced TRRE activity
"[Cl-].[Cl-].[Mg+2] [Mg^2+, MgCl2]",% Control of TRRE activity,TRRE; [9],127% and 127 ± 9%
"O=S(=O)(F)Cc1ccccc1 [PMSF, phenylmethylsulfonyl fluoride]",% Control of TRRE activity,"TRRE; 4 mM, preincubated 37° C. 30 min (Table 5)",116 ± 4%
same,effect on TRRE activity,TRRE,no effect
CCCCC[C@H](O)/C=C/[C@H]1[C@H](O)CC(=O)[C@@H]1C/C=C\CCCC(=O)O [prostaglandin E2],sTNF-R shedding,sTNF-R,not affected
"[Ca+2].[Cl-].[Cl-] [Ca^2+, CaCl2]",% Control of TRRE activity,TRRE; [9],151% and 151 ± 23%
same,% Control of TRRE activity,TRRE; 4 mM (Table 6),189±4%
IL-6: cytokine,induction of TRRE activity,THP-1 cells [3],no apparent TRRE activity
same,induction of sTNF-R,THP-1 cells [3],induced sTNF-R
"Cc1ccc(S(=O)(=O)N[C@@H](CCCCN)C(=O)CCl)cc1 [TLCK, N-α-tosyl-L-lysine chloromethyl ketone]",% Control of TRRE activity,TRRE; [13],108 ± 5%
same,effect on TRRE activity,TRRE,no effect
"[Cl][Fe][Cl] [Fe^2+, FeCl2]",% Control of TRRE activity,TRRE; [9],98 ± 8%
"CCN1C(=O)C=CC1=O [N-ethyl-maleimide, N-ethylmaleimide]",% of TRRE production,THP-1 cells [2]; [11],17%
"[Cl][Mn][Cl] [Mn^2+, MnCl2]",% Control of TRRE activity,TRRE; [9],157% and 157 ± 33%
insulin: hormone,induction of TRRE activity,THP-1 cells [3],no apparent TRRE activity
same,induction of sTNF-R,THP-1 cells [3],induced sTNF-R
"O=c1oc(Cl)c(Cl)c2ccccc12 [3,4-DCI, 3,4-dichloroisocoumarin]",% Control of TRRE activity,TRRE; [13],108 ± 4%
same,effect on TRRE activity,TRRE,no effect
"[Cl][Cu][Cl] [Cu^2+, CuCl2]",% Control of TRRE activity,TRRE; [9],47% and 47 ± 21%
N-tosyl-L-phenylalanine chloromethyl ketone [TPCK],% Control of TRRE activity,TRRE; [13],107 ± 7%
same,effect on TRRE activity,TRRE,no effect
B1,induction of TRRE activity,THP-1 cells [3],induced TRRE activity

# Reference: patent publication US6858402B2 (The Regents of the University of California, priority 1996, dated 2005)
